From the CheMixHub viscosity set

Test: xn = mol fraction of the nth substance listed

CC(C)O + CCCO
viscosity [mPa·s], 101 kPa
Conditions	293.15 K	298.15 K	303.15 K	313.15 K	323.15 K
x2 = 0.1001	2.369	–	1.776	1.349	1.048
x2 = 0.172	–	2.066	–	–	–
x2 = 0.2006	2.359	–	1.777	1.36	1.066
x2 = 0.2956	2.344	–	1.773	1.365	1.077
x2 = 0.33	–	1.997	–	–	–
x2 = 0.3999	2.322	–	1.766	1.368	1.084
x2 = 0.4993	2.3	–	1.758	1.368	1.086
x2 = 0.5	–	2.02	–	–	–
x2 = 0.6	2.278	–	1.75	1.367	1.088
x2 = 0.665	–	1.985	–	–	–
x2 = 0.6973	2.258	–	1.744	1.368	1.089
x2 = 0.754	–	1.985	–	–	–
x2 = 0.7993	2.238	–	1.739	1.368	1.091
x2 = 0.826	–	1.972	–	–	–
x2 = 0.8994	2.219	–	1.734	1.369	1.096

CC1CCCCC1 + CCCO
303.15 K, 101.33 kPa
Conditions	viscosity [mPa·s]
x1 = 0.0998	1.42
x1 = 0.2182	1.188
x1 = 0.4212	0.918
x1 = 0.576	0.777
x1 = 0.7398	0.677
x1 = 0.9	0.637

CCCNCCC + CCCO
viscosity [mPa·s], 101.33 kPa
Conditions	x1 = 0.1059	x1 = 0.2109	x1 = 0.3116	x1 = 0.401	x1 = 0.513	x1 = 0.5913	x1 = 0.7036	x1 = 0.8073	x1 = 0.885
303.15 K	1.601	1.425	1.268	1.138	0.994	0.8936	0.7675	0.6649	0.5972
313.15 K	1.261	1.126	1.009	0.8968	0.7829	0.7121	0.6195	0.5442	0.4899

CCOC(=O)c1ccccc1 + CCCO
viscosity [mPa·s], 101.3 kPa
Conditions	x1 = 0.0548	x1 = 0.1155	x1 = 0.1829	x1 = 0.2582	x1 = 0.3431	x1 = 0.4393	x1 = 0.5493	x1 = 0.6763	x1 = 0.8246
303 K	1.619	1.637	1.645	1.657	–	1.688	1.703	1.72	1.734
308 K	1.471	1.486	1.499	1.51	1.525	1.537	1.552	1.568	1.579
313 K	1.326	1.337	1.351	1.364	1.372	1.386	1.403	1.414	1.432
318 K	1.235	1.247	1.257	1.272	1.28	1.291	1.302	1.314	1.327
323 K	1.175	1.188	1.194	1.205	1.21	1.219	1.227	1.235	1.244

O=C(O)c1cccc([N+](=O)[O-])c1 + CCCO
viscosity [mPa·s], 101 kPa
Conditions	x1 = 0.219	x1 = 0.22	x1 = 0.244	x1 = 0.261	x1 = 0.2797	x1 = 0.2805
318.15 K	3.007	3.007	3.286	3.62	3.951	3.95
323.15 K	2.632	–	–	–	–	3.456

CCCNCCC + CCCOCCO
viscosity [mPa·s], 101.33 kPa
Conditions	298.15 K	308.15 K	318.15 K
x2 = 0.0247	0.53	0.463	0.401
x2 = 0.075	0.592	0.511	0.435
x2 = 0.125	0.657	0.564	0.473
x2 = 0.1902	0.753	0.636	0.529
x2 = 0.2692	0.889	0.737	0.602
x2 = 0.3692	1.09	0.883	0.709
x2 = 0.4334	1.228	0.985	0.782
x2 = 0.476	1.329	1.058	0.833
x2 = 0.5289	1.463	1.153	0.903
x2 = 0.623	1.686	1.318	1.021
x2 = 0.723	1.94	1.507	1.157
x2 = 0.8063	2.136	1.656	1.269
x2 = 0.9114	2.293	1.78	1.362
x2 = 0.9598	2.322	1.846	1.413
x2 = 0.9731	2.333	1.863	1.428

CC(C)O + CCO
101 kPa
Conditions	viscosity [mPa·s]
298.15 K, x2 = 0.214	1.796
298.15 K, x2 = 0.393	1.607
298.15 K, x2 = 0.565	1.445
298.15 K, x2 = 0.725	1.299
298.15 K, x2 = 0.869	1.182
308.15 K, x2 = 0.5	1.186
313.15 K, x2 = 0.5	1.066
318.15 K, x2 = 0.5	0.9542

CCCNCCC + CCO
viscosity [mPa·s], 101.33 kPa
Conditions	x1 = 0.0942	x1 = 0.1946	x1 = 0.3116	x1 = 0.4115	x1 = 0.5186	x1 = 0.6176	x1 = 0.7061	x1 = 0.8005	x1 = 0.9058
303.15 K	1.05	1.048	0.9952	0.9229	0.8291	0.7485	0.6803	0.6208	0.56
313.15 K	0.8212	0.7926	0.7448	0.6985	0.6485	0.5986	0.5562	0.51	0.4624

CNS(C)(=O)=O + CCO
303.15 K, 101.33 kPa
Conditions	viscosity [mPa·s]
x1 = 0.1006	1.105
x1 = 0.201	1.3
x1 = 0.2995	1.58
x1 = 0.3949	1.871
x1 = 0.4923	2.303
x1 = 0.5949	2.888
x1 = 0.6892	3.612
x1 = 0.7757	4.493
x1 = 0.8905	6.09

COc1ccc(/C=C/C(=O)c2ccccc2)cc1 + CCO
viscosity [mPa·s], 101 kPa
Conditions	x1 = 0.000144	x1 = 0.000288	x1 = 0.0005755	x1 = 0.00115	x1 = 0.002298	x1 = 0.004586
298.15 K	1.12	1.173	1.263	1.34	1.364	1.439
303.15 K	1.019	1.072	1.162	1.239	1.263	1.338
308.15 K	0.9181	0.971	1.061	1.138	1.162	1.237
